We go through seven molecules from patent US20110183889A1, “SALICYLANILIDE MODIFIED PEPTIDES FOR USE AS ORAL THERAPEUTICS” (The Regents of the University of California, priority 2007, published 2011).

The subject of series [1] is LDL-induced monocyte chemotactic activity in cultures of human aortic endothelial cells. Description: HDL-inflammatory index: HDL from treated apoE null mice tested in human aortic endothelial cell cultures. The series is classed as in vivo. The note with it: for HDL-inflammatory index, salicylanilide with D-4F or L-4F: FIG. 24, salicylanilide:peptide 10:1, peptide 5 μg by stomach tube. How it is done:
11-month-old female apoE null mice were fasted during the day. At night the mice were provided chow containing or not containing additions. […] The mice were only given one gram of chow per mouse (n=8 mice per group) so that they would consume all of the chow. In the morning after the chow was consumed the mice were bled and their plasma was sucrose cryopreserved and fractionated by FPLC and the HDL-containing fractions were tested for their ability to inhibit monocyte chemotactic activity induced by a standard control human LDL (A) in cultures of human aortic endothelial cells. The mouse HDL (C-J) was also compared to a standard human HDL (B) that was added at the same concentrations as the mouse HDL. The resulting monocyte chemotactic activity was normalized to the standard control LDL added alone (A). The results are plotted as the HDL-inflammatory index, which is the result of dividing the monocyte chemotactic activity measured for each condition by the monocyte chemotactic activity obtained by the standard control LDL added alone, which was normalized to 1.0 as described previously (Navab et al. (2004) J Lipid Res, 45: 993-1007).
A second experiment was performed as described for the first experiment with 8 mice in each group except that the additions to the chow were different. […] As in the first experiment the mice were only given one gram of chow per mouse so that they would consume all of the chow. In the morning this second group of mice were bled and their HDL tested in the human artery wall cell culture together with the HDL from the first experiment.
L-4F (free base) was diluted with water to give 10 μg per 100 μL of water. […] The mice were fasted and after 7 hours they were bled and their plasma was sucrose cryopreserved. The plasma was fractionated by FPLC and the HDL-containing fractions were tested for their ability to inhibit the induction of monocyte chemotactic activity by a standard control human LDL, which was added to cultures of human aortic endothelial cells. The standard control human LDL was also added by itself or with a standard control human HDL. The values obtained by the standard control human LDL alone were normalized to 1.0. The values obtained after the addition of the standard control HDL or the mouse HDL were compared to the values obtained by the standard control LDL alone to give the HDL Inflammatory Index.
Fasting was continued and the mice were bled 5 hours later and the HDL inflammatory index determined in cultures of human aortic endothelial cells as described in FIG. 8. Briefly, To determine the HDL-inflammatory index lipoproteins were added to human aortic endothelial cell cultures as described previously (Navab et al., (2005) Circulation Research 97: 524-532). A normal control human LDL was added to each well in triplicate at a final concentration of 100 μg/mL of LDL-cholesterol. A normal human HDL was added to three wells containing human LDL at a final concentration of 50 μg/mL HDL-cholesterol as a positive control. HDL from the mice at a final concentration of 50 μg/mL HDL-cholesterol was added in triplicate to other wells containing human LDL. After 8 hours of culture the supernatants were removed and monocyte chemotactic activity was determined as previously described (Navab et al. (2001) J. Lipid Res., 42: 1308-1317; Danciger et al. (2004) J. Immunol. Meth., 288: 123-124). The values obtained from wells containing the human LDL but no HDL were normalized to 1.0. The values obtained from wells containing the human LDL with either human or mouse HDL were divided by the values obtained from wells with human LDL without added HDL to give the HDL-inflammatory index as previously described (Ansell et al. (2003) Circulation 108: 2751-2756).

For series [2], the system named is monocyte chemotactic activity in cultures of human aortic endothelial cells. Description: LDL-inflammatory index: LDL from treated apoE null mice tested in human aortic endothelial cell cultures. The series is classed as in vivo. The note with it: for LDL-inflammatory index, salicylanilide with D-4F or L-4F: FIG. 25, mice of FIG. 24. From the text:
[…] to induce monocyte chemotactic activity in cultures of human aortic endothelial cells and compared to a standard control human LDL whose values were normalized to 1.0 for the LDL-inflammatory index.

A short description of series [3]: solubilization of niclosamide in water by L-4F. The note with it: FIG. 13; Niclosamide 10 mg per mL in water or water with 1.0 mg/mL L-4F, homogenized, 4° C. ten days. The series is classed as physicochemical. How it is done:
The solutions were stored at 4° C. for ten days and photographed (see FIG. 13).

The test system of the next series is aortic sinus lesion area. Description: lesion regression in old apoE null mice, six months in chow. The series is classed as in vivo. The note with it: FIGS. 32-34; L-4F 200 μg and niclosamide 2 mg/mouse/day in chow, pravastatin 50 μg/mouse/day, 26 weeks. From the text:
Ninety-five female apoE null mice age 9.5 months from the UCLA breeding colony were identified. Twenty-three were sacrificed at time Zero (Group I) to establish lesion area at the start of the experiment. […] All groups received 50 micrograms/mouse/day of pravastatin in their drinking water. At the veterinarian's request because of fighting and/or ulcerative dermatitis mice were euthanized prior to the end of the experiment as follows: 6 mice from Group II; 5 mice from Group III; 4 mice from Group IV. After six months the remaining mice were sacrificed and aortic sinus lesion area was determined as described previously (Id.).
In still another experiments, nine and half months-old female apoE null mice were divided into four groups: Group I was sacrificed to establish base line lesion area (Time Zero). […] Group III received L-4F at 200 μg/mouse/day in rodent chow. […] Groups II-IV received pravastatin 50 μg/mouse/day in drinking water. After 26 weeks the mice were sacrificed and aortic sinus lesion area was determined.

The conditions of series [4]: cited from earlier work.
In another series the test system is HDL function. The note with it: drinking water of apoE null mice for 24 hours; D-4F 1 μg/ml, statin 0.05 mg/ml; related application U.S. Ser. No. 10/423,830; cited from earlier work.
For series [5] the following is noted: mouse, in vivo, po.
For series [6], the system named is atherosclerosis in apoE Null mice. Description: atherosclerosis lesions (aortic sinus, en face, macrophage area), 14 weeks in chow. The series is classed as in vivo. To be noted: FIGS. 29-31, L-4F 25 and niclosamide 250 μg/mouse/day in chow, all groups pravastatin 50 μg/mouse/day.
The nature of series [7]: self-association of L-4F in aqueous environment (non-denaturing gel). The series is classed as physicochemical. To be noted: FIG. 39 lane 2. From the text:
Lane 1 contains molecular weight markers (HMW).

Series [8] deals with LDL-induced monocyte chemotactic activity in cultures of human aortic endothelial cells. To be noted: administered orally to mice; Navab et al. 2002; cited from earlier work.
For series [9] the following is noted: mouse, in vivo; cited from earlier work.
Series [10] deals with the molecule itself. The experiment in a line: non-denaturing gel (4-20%, coomassie blue), L-4F alone in lane 2; self-association of the peptide.
The mark [11] stands for this setting: FIG. 22, peptide 10 μg with or without niclosamide 10:1, ABCT pH 8.0, stomach tube, seven hours.

For `O=C(Nc1ccc([N+](=O)[O-])cc1Cl)c1ccc(Cl)cc1O` [BP-1001], in series [1] (six hours), the “HDL-inflammatory index, salicylanilide with D-4F or L-4F” value is “more potent than niclosamide”. Moreover, in series [2], the “LDL-inflammatory index, salicylanilide with D-4F or L-4F” value is “more potent”.

As for `O=C(Nc1ccc([N+](=O)[O-])cc1Cl)c1ccc(O)c(Cl)c1` [BP-1012], the “HDL-inflammatory index, salicylanilide with D-4F or L-4F” value in series [1] (six hours) is reported as “more potent than niclosamide”. Further, the “LDL-inflammatory index, salicylanilide with D-4F or L-4F” value in series [2] is reported as “more potent”.

Turning to `O=C(Nc1ccc([N+](=O)[O-])cc1Cl)c1cc(Cl)ccc1O` [Niclosamide, 5-chloro-N-(2-chloro-4-nitrophenyl)-2-hydroxybenzamide], the “enhancement of the ability of L-4F to render HDL anti-inflammatory” value in series [1] (FIG. 16, niclosamide 250 μg/day in chow, L-4F 25 μg/day in drinking water or chow, three days) was “greatly enhanced”. Besides, the “enhancement of the ability of L-4F to decrease LDL-induced monocyte chemotactic activity” value in series [2] (FIG. 17, niclosamide 250 μg/day in chow, L-4F 25 μg/day in drinking water or chow, three days) is given as “greatly enhanced”. Also, the “solubility of niclosamide in aqueous solution” value in series [3] is “relatively insoluble”. For the same molecule, in the series on aortic sinus lesion area, the “lesions in old apoE null mice versus Time Zero” value is “neither niclosamide nor L-4F without niclosamide significantly reduced lesions”. For the same molecule, in [4] (at 20° C., ethanolamine salt in distilled water), the water solubility is 5 to 8 µg/mL. For the same molecule, in [4], the solubility in acetone result was “soluble”; the “solubility in ether, ethanol and chloroform” value was “sparingly soluble”. Moreover, the stability in tablets entry in [4] (moist environments) is “undergoes a biodegradation”.

As for `CC(C)c1c(C(=O)Nc2ccccc2)c(-c2ccccc2)c(-c2ccc(F)cc2)n1CC[C@@H](O)C[C@@H](O)CC(=O)O` [atorvastatin, reference compound], in the series on HDL function, the HDL function entry is listed as “did not improve HDL function”.

Regarding Ac-DWFKAFYDKVAEKFKEAF-NH2 [D-4F], the HDL-inflammatory index entry in series [1] (setting [11]) is on record as “able to render apoE null mouse HDL anti-inflammatory to a degree comparable to normal human HDL”. Also, in series [5], the “detectability in the circulation” value was “essentially non-detectable”. In the series on HDL function, the HDL function entry is recorded as “did not significantly improve HDL function”.

Take “Ac-DWFKAFYDKVAEKFKEAF-NH2 [L-4F, Ac-D-W-F-K-A-F-Y-D-K-V-A-E-K-F-K-E-A-F-NH2]”: the HDL-inflammatory index entry in [1] (FIG. 8, female apoE null mice, additions to 1 g chow overnight: L-4F 2 or 10 μg, Niclosamide 8 or 100 μg) is on record as “slightly but significantly improved”; in series [1] (setting [11]), “only able to achieve this degree of efficacy when co-administered with niclosamide”; in series [1] (FIG. 37, fractions containing 10 μg L-4F or 10 μg niclosamide in ABCT by stomach tube, six hours), “not effective”. The “atherosclerosis (aortic sinus lesion, en face, macrophage lesion area)” value in series [6] is on record as “not without niclosamide”. In the series with aortic sinus lesion area, the “lesions in old apoE null mice versus Time Zero” value was “neither niclosamide nor L-4F without niclosamide significantly reduced lesions”. Besides, the “molecular weight of micelles formed by self-association” value in series [7] is reported as over 100 kDa. Further, the “protective capacity of HDL to inhibit LDL-induced monocyte chemotactic activity” value in series [8] was “did not significantly alter”. The “detectability in the circulation” value in series [5] is “essentially non-detectable”. The “degradation after oral administration” value in series [9] is given as “rapidly degraded”.

B1: L-4F (Ac-D-W-F-K-A-F-Y-D-K-V-A-E-K-F-K-E-A-F-NH2, all L amino acids) (peptide)
peptide: Ac-DWFKAFYDKVAEKFKEAF-NH2
notes: It self-associates into micelles; also called L-4F (free base)
With B1, in series [10], the binding result is reported as “binds”.
